# Measurements: patent publication US11090389B2, “Mitochondrially targeted PARP inhibitor, and uses thereof” (University of Pittsburgh—Of the Commonwealth System of …, priority 2016, dated 2021)
# What was measured:
# [1] = tested on: mouse embryo fibroblasts (MEF); assay: γ-irradiation-induced mitochondrial DNA damage in MEFs (qPCR); assay type: cell-based; conditions: 20 μM for 30 min prior to 10 Gy IR
# Method: PARylation of mtDNA repair enzymes, polymerase-γ and exo/endonucleaseG, by mt-PARP1 is thought interfere with normal mtDNA repair. […] Cells were harvested and DNA extracted 4 and 24 h post-IR. […] ANOVA, *p<0.05, **p<0.01.
# [2] = tested on: HT22 cells; assay: Glutamate-induced ferroptotic cell death in HT22 cells, LDH release; assay type: cell-based, mouse; conditions: 5 mM glutamate; for effect on glutamate-induced ferroptosis: LDH release at 24 h
# Method: HT22 cells were cultured at 37° C. in Dulbecco's modified Eagle's medium (DMEM) (Invitrogen Inc., Carlsbad, Calif.) supplemented with 10% fetal bovine serum (FBS) (Thermo Fisher Scientific, San Jose, Calif.) and 1% penicillin-streptomycin (ATCC, Manassas, Va.) in an atmosphere containing 5% CO2. Cells were cultured for 24 to 48 hr before use.
# [3] = tested on: primary cortical neurons; assay: Mitochondrial and cytosolic NAD+ concentration in primary cortical neurons after OGD; assay type: cell-based, rat; conditions: for mitochondrial NAD+ stores after OGD: 10 nM before OGD, measured 24 h after OGD
# Method: FIG. 8. Mitochondrial and cytosolic NAD^+ concentration in primary cortical neurons after OGD. […] NAD+ concentration measured 24 h after OGD. Assay performed in duplicate.
# (§1) To model ischemia-reperfusion in vitro, culture medium was replaced with a pre-equilibrated low glucose (0.5 mM) medium. Neurons were transferred into a sealed hypoxic chamber (Coy Laboratory Products Inc., Grass Lake, Mich.) set to an atmosphere of 95% N2 with 5% CO2 at 37° C. for 2 h. After OGD neurons were removed from the chamber and returned to the incubator.
# [4] = tested on: primary cortical neurons; assay: Oxygen-glucose deprivation (OGD) in primary cortical neurons, LDH release; assay type: cell-based, rat
# Method: as §1
# To determine whether mitochondria-targeting XJB-veliparib can promote neuronal survival in ischemia-like conditions in vitro, primary cortical neurons at 12 DIV were subjected to OGD. Cultured neurons were exposed to a hypoxic and glucose-depleted environment for 2 h, followed by normal culture conditions for 24 h to mimic ischemia/reperfusion injury. […] Specifically, 10 nM XJB-veliparib reduced cell death by 67% (LDH release 12.4±3.1% vs. 38.0±2.5%, 10 nM XJB-veliparib vs. vehicle; mean±SD; P<0.05).
# [5] = tested on: primary cortical neurons; assay: Cellular localization of poly(ADP-ribose) polymers after OGD (immunofluorescence, confocal and STED microscopy); assay type: cell-based, rat; conditions: 10 nM, OGD 2 h; for PAR immunofluorescence after OGD (confocal): triplicate
# Method: Neurons grown on poly-D-lysine coated glass coverslips were fixed in 2% paraformaldehyde and permeabilized with TritonX-100. Coverslips were then incubated in a 1:200 dilution of mouse monoclonal antibody against PAR (SA216, ENzo Life Sciences, Inc., Farmingdale, N.Y.) and an antibody against TOMM20 (Abcam, Cambridge, Mass.) followed by incubation in the appropriate secondary antibodies. Cell nuclei were labelled with 4′,6 diamidino-2-phenylindole (DAPI) for standard confocal microscopy or DRAQ5 (both from ThermoFisher Scientific, Waltham, Mass.) for STED microscopy. Images were collected using an Olympus Fluoview 1000 confocal microscope (Olympus Corporation of the Americas, Center Valley, Pa.).
# For STED imaging a Leica TCS SP8 super resolution STED microscope with a pulsed white light laser and AOBS detection system was used (Leica Microsystems, Wetzlar, Germany). Images were collected using the 775 nm STED laser line with 30% 3D STED using the Leica STED WHITE oil objective lens (HC PL APO 100×/1.40 OIL) with a 200 Hz scan speed and 2× line averaging. Pixel size was set to 45 nm/pixel, step size was set to […], and pinhole was set at 132.8 μm (0.875 AU). TOMM20 was visualized using Alexa Fluor 555, exciting at 553 nm and detecting between 558-599 nm and temporally gate between […]. PAR was visualized with Alexa Fluor 594, exciting at 598 nm and detecting between 603-666 nm and temporally gated between 0.3-6.0 nsec. DRAQ5 (ThermoFisher Scientific, Waltham, Mass.) was excited at 662 and detected between 667 to 780 nm and temporally gated between 0.3-6.0 nsec. Channels were collected between stacks, sequentially.
# The cellular localization of poly(ADP-ribose) (PAR) polymers, a footprint of PARP activation, was examined in primary cortical neurons after OGD using immunohistochemistry and confocal microscopy.
# To evaluate the impact of XJB-veliparib on mitochondrial structure after OGD, we used stimulation emission depletion (STED) microscopy and immunohistochemistry. Primary rat cortical neurons were treated with 10 nM XJB-veliparib or vehicle and then exposed to OGD for 2 h.
# [6] = tested on: rat primary cortical neurons; assay: Cytotoxicity in rat primary cortical neurons, LDH release at 24 h; conditions: for concentration at which neurotoxicity (defined as >10% cell death) was seen: n=6/group
# Method: Cytotoxicity was assessed by LDH release from dying neurons at 24 h.
# [7] = tested on: mouse embryo fibroblasts (MEF); assay: IR-induced cell death in mouse embryo fibroblasts, Annexin V/PI flow cytometry; assay type: cell-based; conditions: for survival after IR: 10, 20 μM for 30 min prior to 10 Gy IR, survival at 48 h, mean±SD, vehicle 68.4%±2.2
# Method: MEF cells were treated with 10, 20 μM XJB-veliparib for 30 min prior to 10 Gy IR (309 R/min, Cs137 source), media was changed to drugless media 4 h post-IR. Survival was assessed at 48 h by Annexin V-FTIC/PI flow cytometry. […] Mean±SD, *p<0.05, ****p<0.0001.
# [8] = Mitochondrial enrichment: LC-MS quantification in mitochondria- and nuclear-enriched fractions of neurons; assay type: in vitro ADME, rat; conditions: neurons exposed to 100 nM for 24 h; mean±SD; n=3
# Method: Water (150 μL) was added and the solution was vortexed (15 sec) and set aside to equilibrate at room temperature (30 min). The resulting suspension was placed in an Eppendorf Centrifuge 5702 (4400 rpm, 20° C.) for 12 min. The organic layer was extracted and filtered through a 0.45 μm filter for analysis.
# The concentration was reported as pM concentration of XJB-Veliparib per 10 μg of protein with corresponding standard deviation values.
# To verify mitochondrial enrichment, rat primary cortical neurons were exposed to 100 nM XJB-veliparib for 24 h. Mitochondria- and nuclear-enriched subcellular fractions were obtained and verified by western blot using antibodies against the cytochrome oxidase subunit Vα (COX Vα) and histone H3, respectively (FIG. 6A). In mitochondria-enriched fractions, the LCMS analysis of XJB-veliparib indicated a concentration of 116±55 pmol/10 μg protein compared with 29±27 pmol/10 μg protein in nuclear-enriched fractions (FIG. 6B; mean±standard deviation [SD]; n=3 independent experiments).
# [9] = molecular target: T1, PARP1 (Homo sapiens, UniProt P09874); assay: PARP1 activity, commercial assay (Trevigen), histone-coated wells with active PARP1 enzyme and NAD+; assay type: biochemical; conditions: active PARP1 enzyme; triplicate; FIG. 4
# Method: The capacity to inhibit PARP1 was determined using a commercial assay (Trevigen, Gaithersburg, Md.) as per manufacturer's direction.
# [10] = molecular target: T1, PARP1; assay: PARP1 inhibitory capacity of mitochondria-enriched fractions spiked with active PARP1 enzyme; assay type: biochemical; conditions: triplicate
# T1 sequence (P09874 whole entry): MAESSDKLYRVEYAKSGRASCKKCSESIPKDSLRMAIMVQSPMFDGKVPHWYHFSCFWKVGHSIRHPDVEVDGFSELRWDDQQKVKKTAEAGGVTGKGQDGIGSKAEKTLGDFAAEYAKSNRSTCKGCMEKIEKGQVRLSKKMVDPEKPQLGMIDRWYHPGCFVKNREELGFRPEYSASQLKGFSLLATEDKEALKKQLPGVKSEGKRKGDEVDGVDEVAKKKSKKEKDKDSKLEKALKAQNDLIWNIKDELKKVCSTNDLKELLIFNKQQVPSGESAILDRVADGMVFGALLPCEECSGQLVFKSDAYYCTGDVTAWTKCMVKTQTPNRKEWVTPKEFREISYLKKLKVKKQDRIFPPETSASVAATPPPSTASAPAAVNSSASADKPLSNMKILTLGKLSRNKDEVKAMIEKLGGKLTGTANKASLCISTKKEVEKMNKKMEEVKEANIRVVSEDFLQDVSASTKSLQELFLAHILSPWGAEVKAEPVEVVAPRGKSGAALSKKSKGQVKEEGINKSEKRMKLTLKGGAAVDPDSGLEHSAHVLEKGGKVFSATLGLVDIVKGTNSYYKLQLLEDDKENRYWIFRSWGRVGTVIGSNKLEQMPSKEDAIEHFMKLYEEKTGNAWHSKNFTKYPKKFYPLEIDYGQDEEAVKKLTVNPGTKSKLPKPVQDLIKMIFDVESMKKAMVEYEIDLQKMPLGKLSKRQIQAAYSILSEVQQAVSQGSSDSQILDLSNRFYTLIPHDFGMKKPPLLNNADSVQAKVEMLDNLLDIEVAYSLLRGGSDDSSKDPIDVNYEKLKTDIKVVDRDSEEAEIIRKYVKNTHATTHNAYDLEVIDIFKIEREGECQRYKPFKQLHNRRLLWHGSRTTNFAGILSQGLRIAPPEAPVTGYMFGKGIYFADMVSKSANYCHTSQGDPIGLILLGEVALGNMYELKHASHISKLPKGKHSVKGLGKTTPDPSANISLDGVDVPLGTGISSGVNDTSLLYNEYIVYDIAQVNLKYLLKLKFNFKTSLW
smiles,measurement,setting,value
"CC1(c2nc3c(C(N)=O)cccc3[nH]2)CCCN1 (stereo in doubt) [veliparib, 1,2-[(S)-2-methylpyrrolidin-2-yl]-1H-benzimidazole-4-carboxamide, reference compound]",effect on mtDNA lesions compared to vehicle irradiated cells,[1],no effect
same,effect on glutamate-induced ferroptosis,[2],inhibit glutamate-induced ferroptosis
same,mitochondrial NAD+ stores after OGD,[3],preserve mitochondrial NAD^+ stores
same,protection against OGD at concentrations >100 nM,[4],no additional protection
same,PAR immunofluorescence after OGD (confocal),[5],reduction of PAR immunofluorescence
same,concentration at which neurotoxicity (defined as >10% cell death) was seen,[6],1 µM
same,survival after IR,[7],57.1%
"CC(C)C[C@@H](/C=C/[C@H](Cc1ccccc1)C(=O)N1CCC[C@H]1C(=O)N[C@H](C(=O)N[C@@H](CCCNC(=O)OCc1ccccc1)C(=O)NCCCNC(=O)c1cccc2[nH]c([C@]3(C)CCCN3)nc12)C(C)C)NC(=O)OC(C)(C)C [XJB-Veliparib, tert-Butyl ((4S,7S, E)-7-benzyl-2-methyl-8-((S)-2-(((S)-3-methyl-1-(((S)-15-(2-((S)-2-methylpyrrolidin-2-yl)-1H-benzo[d]imidazol-4-yl)-3,9,15-trioxo-1-phenyl-2-oxa-4, 10,14-triazapentadecan-8-yl)amino)-1-oxobutan-2-yl)carbamoyl)pyrrolidin-1-yl)-8-oxooct-5-en-4-yl)carbamate]",concentration in mitochondria-enriched fractions,[8],116±55 pmol/10 μg protein
same,concentration in nuclear-enriched fractions,[8],29±27 pmol/10 μg protein
same,PARP1 inhibition compared with untargeted veliparib,[9],similar
same,number of PCR-detectable mtDNA lesions following γ-IR,"[1]; DNA extracted 4 and 24 h post-IR, vehicle 0.48±0.03",0.30±0.03
same,efficacy vs. veliparib at higher concentrations,"[2]; 10 μM, LDH at 24 h",slightly more effective than veliparib
same,effect on glutamate-induced ferroptosis,[2],inhibit glutamate-induced ferroptosis
same,mitochondrial NAD+ stores after OGD,[3],preserve mitochondrial NAD^+ stores
same,efflux of NAD+ from the mitochondria to the cytosol,"[3]; 10 nM, 24 h after OGD",prevented efflux of NAD^+ from the mitochondria to the cytosol
same,LDH release after OGD,"[4]; 10 nM, 2 h OGD, then 24 h, mean±SD, vehicle 38.0±2.5%",12.4±3.1%
same,reduction of OGD-induced cell death vs. vehicle,"[4]; 10 nM, 2 h OGD, then 24 h normal culture",67%
same,effect on OGD-induced cell death at low nanomolar concentrations,"[4]; 2 h OGD, then 24 h",significantly attenuated OGD-induced cell death
same,protection against OGD at concentrations >100 nM,[4],no additional protection
same,mitochondrial architecture after OGD (STED),[5],partially preserved
same,PAR immunoreactivity after OGD vs. vehicle (STED),[5]; 1 h,reduced
same,PAR immunofluorescence after OGD (confocal),[5],reduction of PAR immunofluorescence
same,PARP1 inhibitory capacity of mitochondria-enriched fractions compared to unconjugated veliparib,[10],greater PARP1 inhibitory capacity
same,cytotoxicity compared with unconjugated veliparib,[6]; P<0.05,significantly less toxic
same,concentration at which neurotoxicity (defined as >10% cell death) was seen,[6],10 µM
same,concentration at which radiation damage was decreased,[7],≥ 5 µM
same,survival after IR,[7],90.1%
